pEC50: −log10 of the molar value. Active and inactive are the calls of the source. The calls are words filed in the database; no cut-off is given here.
Legend:
[1] = Cytotoxicity against human Hep3B cells assessed as cell viability at 12.5 ug/ml measured by MTT assay; type: toxicity, cell-based, Hep 3B2; conditions: at 12.5 µg/mL, read-out: Activity
Mus musculus = experiment: In vivo inhibition of PHD2 in ICR mouse assessed as increase in serum EPO production at 10 mg/kg, po and measured after 4 hrs by ELISA; type: functional, organism-based
[2] = Cytotoxicity against human Hep3B cells assessed as cell viability at 100 ug/ml measured by MTT assay; type: toxicity, cell-based, Hep 3B2; conditions: at 100 µg/mL, read-out: Activity
Egl nine homolog 1 = Egl nine homolog 1 (Homo sapiens, UniProt Q9GZT9); experiment: Inhibition of PHD2 in human Hep3B cells assessed as increase in EPO production measured after 24 hrs by ELISA; type: cell-based
Sequence of Egl nine homolog 1 (Q9GZT9 whole entry): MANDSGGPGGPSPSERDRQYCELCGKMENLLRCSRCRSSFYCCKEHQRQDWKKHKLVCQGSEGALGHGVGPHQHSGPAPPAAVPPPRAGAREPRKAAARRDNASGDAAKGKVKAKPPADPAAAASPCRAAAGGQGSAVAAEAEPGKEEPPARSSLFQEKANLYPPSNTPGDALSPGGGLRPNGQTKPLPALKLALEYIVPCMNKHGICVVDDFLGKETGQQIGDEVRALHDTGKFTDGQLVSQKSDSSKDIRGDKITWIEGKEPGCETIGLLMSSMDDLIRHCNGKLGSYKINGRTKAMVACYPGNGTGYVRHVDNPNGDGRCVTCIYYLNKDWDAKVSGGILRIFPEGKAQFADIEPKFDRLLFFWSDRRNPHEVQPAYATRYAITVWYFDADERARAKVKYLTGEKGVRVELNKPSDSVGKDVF

With `O=C(O)CNC(=O)c1cnc(NS(=O)(=O)c2ccc(-c3ccccc3)cc2)nc1O` the viability at 12.5 ug/ml [1] was 91.9%, the inhibition (Mus musculus) was “Active” and the viability at 100 ug/ml [2] was 73.4%.

Compound `O=C(O)CNC(=O)c1cnc(NS(=O)(=O)c2ccc(Br)cc2)nc1O` has a pEC50 (Egl nine homolog 1) of 5.10, a viability at 12.5 ug/ml [1] of 100% and a viability at 100 ug/ml [2] of 116%.

`Cc1ccc(S(=O)(=O)Nc2ncc(C(=O)NCC(=O)O)c(O)n2)cc1` showed a pEC50 (Egl nine homolog 1) of 5.03, a viability at 12.5 ug/ml [1] of 98.5% and a viability at 100 ug/ml [2] of 102%.

In the case of `COc1ccc(S(=O)(=O)Nc2ncc(C(=O)NCC(=O)O)c(O)n2)cc1`, the viability at 12.5 ug/ml [1] was 105%, the inhibition (Mus musculus) was “Active” and the viability at 100 ug/ml [2] was 110%.

In the case of `O=C(O)CNC(=O)c1cnc(NS(=O)(=O)Cc2ccccc2)nc1O`, the viability at 12.5 ug/ml [1] was 90%, the inhibition (Mus musculus) was “Active” and the viability at 100 ug/ml [2] was 87.5%.

With `O=C(O)CNC(=O)c1cnc(NS(=O)(=O)c2ccc(C(F)(F)F)cc2)nc1O` the viability at 12.5 ug/ml [1] was 97.2%, the inhibition (Mus musculus) was “Active” and the viability at 100 ug/ml [2] was 95.8%.

For `Cc1nc(C(=O)NCC(=O)O)c(O)c2ccc(Oc3ccccc3)cc12` [ROXADUSTAT], the viability at 12.5 ug/ml [1] was 89.9%, the inhibition (Mus musculus) was “Active” and the viability at 100 ug/ml [2] was 58.5%.

With `O=C(O)CNC(=O)c1cnc(NS(=O)(=O)c2ccc(Cl)c(Cl)c2)nc1O` the viability at 12.5 ug/ml [1] was 89.5% and the viability at 100 ug/ml [2] was 90.9%.

For `O=C(O)CNC(=O)c1cnc(NS(=O)(=O)c2cccc(Cl)c2)nc1O`, the pEC50 (Egl nine homolog 1) was 5.90, the viability at 12.5 ug/ml [1] was 95.7% and the inhibition (Mus musculus) was “Active”. It also gave a viability at 100 ug/ml [2] of 84.4%.

`O=C(O)CNC(=O)c1cnc(NS(=O)(=O)c2ccc(Cl)cc2)nc1O` showed a viability at 12.5 ug/ml [1] of 85.5% and a viability at 100 ug/ml [2] of 93.4%.

For `O=C(O)CNC(=O)c1cnc(NS(=O)(=O)c2ccccc2)nc1O`, the inhibition (Mus musculus) was “Active”.
